Measurements reported in patent US5773422A, “Avermectin formulation” (priority 1996, dated 1998).

Legend:
[1] = pain and tissue reaction at the injection site; assay type: in vivo; settings: compared with 2-pyrrolidone
[2] = cited from earlier work
Rat = settings: cited from earlier work
[3] = solubility of avermectins/ivermectin in N-methylpyrrolidone and 2-pyrrolidone formulations; water tolerance (clear solution becomes milky or cloudy as excess water is added); assay type: physicochemical
Protocol: Both N-methylpyrrolidone and 2-pyrrolidone have been approved as a safe solvent for injection, but only for oxytetracycline; which is chemically unlike ivermectin. […] Ivermectin can be present in the formulation from 0.1% to 40% (w/v). N-methylpyrrolidone (also known as M-pyrole) can be present from 5% to essentially 100% (v/v) of the formulation. The specific gravity of N-methylpyrrolidone is 1.027 at 25° C. relative to water at 4° C. Additional compounds can be included as desired, e.g. propylene glycol up to 95% by volume, water up to 90% by volume and Clorsulon (an antiparasitic agent frequently co-administered with ivermectin) up to 40% by weight. The formulation can contain water up to amounts which limit avermectin solubility. The maximum amount of water which can be included depends upon the amount of avermectin and the presence of co-solvents such as propylene glycol, and presence of detergent, as illustrated in the Examples. The amount of water which can be present is limited only by avermectin solubility. The presence of too much water can be readily detected because the clear solution becomes milky or cloudy as excess water is added. Where N-methylpyrrolidone is the sole solvent, up to 30% by volume of water can be included in a formulation containing 1% (w/v) ivermectin. If less ivermectin is present, the amount of water can be increased somewhat. If 10% (v/v) propylene glycol is a co-solvent with 20% (w/v) N-methylpyrrolidone, 0.5% ivermectin remains soluble in the presence of water up to about 70% by volume. Compositions containing 2-pyrrolidone completely or partially substituted for N-methylpyrrolidone in the exemplified formulations are equivalent in their solubility properties. As noted above, compositions containing N-methylpyrrolidone are preferred.

[4] = cited from earlier work; remark: listed apart in the source

For `CN1CCCC1=O` [N-methylpyrrolidone], the “pain at the injection site” value [1] is listed as “less pain at the injection site”, the tissue reaction [1] is listed as “less tissue reaction” and the “time in which most of the compound is eliminated by the kidneys” value [2] is listed as at most 24 h. For the same compound, the LD50 (Rat; Rat, oral) was 4200 mg/kg and the oral toxicity (Rat) was “very low order of oral toxicity”.
With 22,23-dihydroavermectin B1 [ivermectin] the “water in the presence of which ivermectin remains soluble” value ([3]; 0.5% ivermectin, 10% (v/v) propylene glycol co-solvent with 20% (w/v) N-methylpyrrolidone) was “up to 70 % by volume”, the “solubility in 2-pyrrolidone” value ([3]; 2-pyrrolidone, to permit formulation of therapeutic compositions) was “sufficiently soluble” and the “amount of water which can be included (limited by avermectin solubility)” value ([3]; N-methylpyrrolidone sole solvent, 1% (w/v) ivermectin) was “up to 30 % by volume”. For the same compound, the “solubility in N-methylpyrrolidone” value ([3]; N-methylpyrrolidone, to permit formulation of therapeutic compositions) was “sufficiently soluble”, the “solubility in 1-butanol” value ([4]; 1-butanol) was 330 mg/mL and the “solubility in 2-propanol” value ([4]; 2-propanol) was 70 mg/mL. The solubility in acetone ([4]; acetone) was 81 mg/mL, the solubility in methylethylketone ([4]; methylethylketone) was 320 mg/mL and the solubility in water ([4]; water, room temperature) was “about 0.005 mg per ml”.
